Holding throughout (format): biochemical
Test [1] addresses T1, CYP3A4 (Homo sapiens, UniProt P08684). Put plainly: Determination of IC50 against CYP3A4 by measurement of inhibition of midazolam metabolism (human liver microsomes, 1-hydroxymidazolam by LC-MS/MS). To be noted: 2 μM midazolam, 0.1 mg/mL human liver microsomes. Set-up: 0.1 mg/mL human liver microsomes. Summed up: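 Human liver microsomes (0.1 mg/mL) incubated 8 min with 2 μM midazolam and 1 mM NADPH in 100 mM potassium phosphate, pH 7.4. 1-Hydroxymidazolam quantified by LC-MS/MS (MRM) as peak area ratio to internal standard against a metabolite standard curve.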

The target in test [2] is T1, CYP3A4. Briefly: Determination of IC50 against CYP3A4 by measurement of inhibition of testosterone metabolism (human liver microsomes, 6-β-OH-testosterone by LC-MS/MS). Also on record: 0.1 mg/mL human liver microsomes. To be noted: read-out: IC50 (Testo.). Put shortly:
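Human liver microsomes (0.1 mg/mL) incubated with 25 μM testosterone and 1 mM NADPH in 100 mM potassium phosphate, pH 7.4, for eight minutes. 6-β-OH-testosterone measured by LC-MS/MS in MRM mode against an internal standard and quantified from a metabolite standard curve.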
A general note: Liver microsomes are a subcellular fraction often used to study metabolism.

In test [3] the target is T1, CYP3A4. Put plainly: Determination of compound Kiapp against recombinant CYP3A4 enzyme (BFC fluorescent substrate). Summed up:
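Recombinant CYP3A4 (5.5 or 8 nM, with or without b5 depending on source) pre-incubated with inhibitor ≥30 min at room temperature in 100 mM sodium phosphate pH 7.0, 5 mM TCEP, 2% DMF. Reaction started with 200 uM NADPH and 5 uM BFC; initial fluorescence rates over 5 min fitted to Morrison tight-binding (non-partial) or Szedlacsek (partial) equations for Kiapp.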

[4] abbreviates: Baculo. enzyme preparation, read-out: Kiapp (BFC, Baculo.).
Setting [5] is: Super. enzyme preparation, read-out: Kiapp (BFC, Super.).

Like-named read-outs stand apart in the source and are kept apart here.

The term IC50 denotes the midpoint of a concentration-inhibition curve.

T1 sequence (P08684 whole entry): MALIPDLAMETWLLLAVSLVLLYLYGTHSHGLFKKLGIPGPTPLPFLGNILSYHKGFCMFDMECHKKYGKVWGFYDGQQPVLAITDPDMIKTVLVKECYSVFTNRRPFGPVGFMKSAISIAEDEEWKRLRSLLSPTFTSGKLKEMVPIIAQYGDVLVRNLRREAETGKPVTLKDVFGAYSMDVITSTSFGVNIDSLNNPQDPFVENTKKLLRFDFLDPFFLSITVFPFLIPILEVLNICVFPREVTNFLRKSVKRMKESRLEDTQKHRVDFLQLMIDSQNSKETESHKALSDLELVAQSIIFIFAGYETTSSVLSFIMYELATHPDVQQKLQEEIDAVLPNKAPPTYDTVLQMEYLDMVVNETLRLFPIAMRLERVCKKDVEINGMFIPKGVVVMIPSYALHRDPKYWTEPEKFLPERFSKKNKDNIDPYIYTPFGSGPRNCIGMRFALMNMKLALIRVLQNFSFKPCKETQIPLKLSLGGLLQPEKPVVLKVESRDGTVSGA

`COc1cncc(NS(=O)(=O)c2ccc(Cl)cc2C(=O)NCc2ccc(F)cc2)c1` [Example 310, 5-chloro-N-(4-fluorobenzyl)-2-{[(5-methoxypyridin-3-yl)amino]sulfonyl}benzamide]: the IC50 in test [1] stood at 53 nM; in test [2] it was 64 nM. For the same compound, the Ki in test [3] (setting [4]) was 140 nM; in test [3] (setting [5]) it was 28.3 nM.
The corresponding values for `COc1cncc(NS(=O)(=O)c2ccccc2C(=O)NC(C)C2CC2)c1` (stereo not shown) [Example 311, N-(1-cyclopropylethyl)-2-{[(5-methoxypyridin-3-yl)amino]sulfonyl}benzamide] are 34 nM, 73 nM, 209 nM and 76.2 nM.
Turning to `COc1cncc(NS(=O)(=O)c2ccccc2C(=O)NCc2ccc(F)c(C(F)(F)F)c2)c1` [Example 312, N-[4-fluoro-3-(trifluoromethyl)benzyl]-2-{[(5-methoxypyridin-3-yl)amino]sulfonyl}benzamide], the half-inhibitory concentration (IC50) in test [1] amounted to 13 nM; in test [2] it was 12 nM. The Ki came out at 8.6 nM in test [3] (setting [4]) and 3.5 nM in test [3] (setting [5]).
The corresponding values for `COc1cncc(NS(=O)(=O)c2ccccc2C(=O)NC(C)C(C)C)c1` (stereo not shown) [Example 313, N-(1,2-dimethylpropyl)-2-{[(5-methoxypyridin-3-yl)amino]sulfonyl}benzamide] are 19 nM, 55 nM, 197 nM and 48.7 nM.
The corresponding values for `COc1cncc(NS(=O)(=O)c2ccccc2C(=O)NCc2ccc(Cl)c(Cl)c2)c1` [Example 314, N-(3,4-dichlorobenzyl)-2-{[(5-methoxypyridin-3-yl)amino]sulfonyl}benzamide] are 17 nM, 17 nM, 18.7 nM and 4.5 nM.
The corresponding values for `Cc1cncc(NS(=O)(=O)c2ccccc2C(=O)NC(C)C2CC2)c1` (stereo not shown) [Example 315, N-(1-cyclopropylethyl)-2-{[(5-methylpyridin-3-yl)amino]sulfonyl}benzamide] are 22 nM, 43 nM, 250 nM and 42.2 nM.
For the compound `Cc1cncc(NS(=O)(=O)c2ccccc2C(=O)NCc2ccc(F)c(C(F)(F)F)c2)c1` [Example 316, N-[4-fluoro-3-(trifluoromethyl)benzyl]-2-{[(5-methylpyridin-3-yl)amino]sulfonyl}benzamide], the IC50 in test [1] was 17 nM; in test [2] it was 27 nM. For the same compound, the Ki stood at 8.4 nM in test [3] (setting [4]) and 1.2 nM in test [3] (setting [5]).
On the same counts, the results for `Cc1cncc(NS(=O)(=O)c2ccccc2C(=O)NC(C)C(C)C)c1` (stereo not shown) [Example 317, N-(1,2-dimethylpropyl)2{[(5-methylpyridin-3-yl)amino]sulfonyl}benzamide] are 15 nM, 19 nM, 144 nM and 51.6 nM.
As to `Cc1cncc(NS(=O)(=O)c2ccccc2C(=O)NCc2ccc(Cl)c(Cl)c2)c1` [Example 318, N-(3,4-dichlorobenzyl)-2-{[(5-methylpyridin-3-yl)amino]sulfonyl}benzamide], the IC50 in test [1] stood at 145 nM; in test [2], 165 nM. The results for the Ki in test [3] (setting [4]) and in test [3] (setting [5]) were 9.9 nM and 1.9 nM, respectively.
As for `Cc1cncc(NS(=O)(=O)c2ccccc2C(=O)NCCc2ccccc2C)c1` [Example 319, N-[2-(2-methylphenyl)ethyl]-2-{[(5-methylpyridin-3-yl)amino]sulfonyl}benzamide], the IC50 is 10 nM in test [1] and 11 nM in test [2]. The Ki in test [3] (setting [4]) came to 4.3 nM; in test [3] (setting [5]), 7.2 nM.
On the same counts, the results for `Cc1cncc(NS(=O)(=O)c2ccccc2C(=O)NCc2ccc(F)c(F)c2)c1` [Example 320, N-(3,4-difluorobenzyl)-2-{[(5-methylpyridin-3-yl)amino]sulfonyl}benzamide] are 6 nM, 8 nM, 10.1 nM and 28.4 nM.
On the same counts, the results for `Cc1cncc(NS(=O)(=O)c2ccccc2C(=O)N2CCCC2)c1` [Example 321, N-(5-methylpyridin-3-yl)-2-(pyrrolidin-1-ylcarbonyl)benzenesulfonamide] are 94 nM, 129 nM, 195 nM and 460 nM.
The corresponding values for `COc1cncc(N(C)S(=O)(=O)c2ccccc2C(=O)NCc2cccc(F)c2)c1` [Example 322, N-(3-fluorobenzyl)-2-{[(5-methoxypyridin-3-yl)(methyl)amino]sulfonyl} benzamide] are 11 nM, 15 nM, 54.4 nM and 19.8 nM.
Take `CC(C)CCNC(=O)c1ccccc1S(=O)(=O)N(C)c1cccnc1` [Example 323, N-(3-methylbutyl)-2-{[methyl(pyridin-3-yl)amino]sulfonyl}benzamide]: the 50% inhibitory concentration (IC50) in test [1] came out at 28 nM; in test [2], 59 nM. The Ki in test [3] (setting [4]) amounted to 210 nM; in test [3] (setting [5]) it was 221 nM.
The corresponding values for `CN(CC1CCCC1)C(=O)c1ccccc1S(=O)(=O)Nc1cccnc1` [Example 324, N-(cyclopentylmethyl)-N-methyl-2-[(pyridin-3-ylamino)sulfonyl]benzamide] are 11 nM, 20 nM, 85.1 nM and 21.7 nM.
The corresponding values for `Cc1ccccc1CCNC(=O)c1ccccc1S(=O)(=O)N(C)c1cccnc1` [Example 325, N-[2-(2-methylphenyl)ethyl]-2-{[methyl(pyridin-3-yl)amino]sulfonyl}benzamide] are 119 nM, 84 nM, 35 nM and 8.6 nM.
On the same counts, the results for `CN(c1cccnc1)S(=O)(=O)c1ccccc1C(=O)N1CCOCC1` [Example 326, N-methyl-2-(morpholin-4-ylcarbonyl)-N-pyridin-3-ylbenzenesulfonamide] are 132 nM, 164 nM, 884 nM and 273 nM.
For the compound `CN(c1cccnc1)S(=O)(=O)c1ccccc1C(=O)N1CCCC1` [Example 328, N-methyl-N-pyridin-3-yl-2-(pyrrolidin-1-ylcarbonyl)benzenesulfonamide], the IC50 in test [1] and in test [2] was over 750 nM each time. Further, the values for the Ki in test [3] (setting [4]) and in test [3] (setting [5]) were over 1000 nM and 484 nM, respectively.
With `CCCN(CC1CC1)C(=O)c1ccccc1S(=O)(=O)N(C)c1cncc(OC)c1` [Example 329, N-(cyclopropylmethyl)-2-{[(5-methoxypyridin-3-yl)(methyl)amino]sulfonyl}-N-propylbenzamide], the figures for the IC50 in test [1] and in test [2] were 32 nM and 58 nM, respectively. Besides, the Ki in test [3] (setting [4]) is 34 nM; in test [3] (setting [5]), 17.7 nM.
For `Cc1cncc(NS(=O)(=O)c2ccccc2C(=O)NCC(C)(C)C)c1` [Example 330, N-(2,2-dimethylpropyl)-2-{[(5-methylpyridin-3-yl)amino]sulfonyl}benzamide], the IC50 was determined as 60 nM in test [1] and 55 nM in test [2]. Further, the Ki in test [3] (setting [4]) stood at 204 nM; in test [3] (setting [5]) it was 22.7 nM.
On the same counts, the results for `CCCN(CC1CC1)C(=O)c1ccccc1S(=O)(=O)Nc1cncc(C)c1` [Example 331, N-(cyclopropylmethyl)-2-{[(5-methylpyridin-3-yl)amino]sulfonyl}-N-propylbenzamide] are 12 nM, 14 nM, 75.2 nM and 10.9 nM.
On the same counts, the results for `CN(c1cccnc1)S(=O)(=O)c1ccccc1C(=O)NCC1CCCC1` [Example 332, N-(cyclopentylmethyl)-2-{[methyl(pyridin-3-yl)amino]sulfonyl}benzamide] are 13 nM, 13 nM, 334 nM and 61.2 nM.
The corresponding values for `Cc1cncc(NS(=O)(=O)c2ccccc2C(=O)N2CC(C)CC(C)C2)c1` (stereo not shown) [Example 333, 2-[(3,5-dimethylpiperidin-1-yl)carbonyl]-N-(5-methylpyridin-3-yl)benzenesulfonamide] are 24 nM, 13 nM, 69.2 nM and 22.9 nM.
With `Cc1cncc(NS(=O)(=O)c2ccccc2C(=O)NCC2CCCC2)c1` [Example 334, N-(cyclopentylmethyl)-2-{[(5-methylpyridin-3-yl)amino]sulfonyl}benzamide], the figures for the concentration for half-maximal inhibition (IC50) in test [1] and in test [2] were 12 nM and 17 nM, respectively. Further, the Ki amounted to 82.6 nM in test [3] (setting [4]) and 9.1 nM in test [3] (setting [5]).
On the same counts, the results for `Cc1cncc(NS(=O)(=O)c2ccccc2C(=O)N(C)Cc2ccccc2)c1` [Example 335, N-benzyl-N-methyl-2-{[(5-methylpyridin-3-yl)amino]sulfonyl}benzamide] are 20 nM, 28 nM, 97.7 nM and 16.8 nM.
